# Data from the supplement of paper PMC10307832.
# Experiments:
# Assay in all cases: relative viability (nuclei count vs DMSO), 5 days (fraction); higher = more cells survive
# [1] = compound: COc1cc2c(Oc3ccc4[nH]c(C)cc4c3F)ncnc2cc1OCCCN1CCCC1 [Cediranib] + CCNC(=O)c1noc(-c2cc(C(C)C)c(O)cc2O)c1-c1ccc(CN2CCOCC2)cc1 [Luminespib] (partner 0.01 µM)
# In short: (§1)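 After 5 days of treatment, lung cancer cells in 1536-well plates were fixed and stained in a single step (final 0.05% Triton X-100, 1% formaldehyde, 1 ug/ml Hoechst) and their nuclei counted on 4× images. Treatment had been applied by pin tool the day after seeding as one drug alone or as a fixed anchor-drug dose with five library-drug doses (not always all listed) in √10 steps. Relative viability is the nuclei count of treated wells divided by that of vehicle wells, and values are medians of duplicate plates.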
# [2] = compound: Nc1ncn([C@H]2C[C@H](O)[C@@H](CO)O2)c(=O)n1 [Decitabine] + CS(=O)(=O)CCNCc1ccc(-c2ccc3ncnc(Nc4ccc(OCc5cccc(F)c5)c(Cl)c4)c3c2)o1 [Lapatinib] (partner 2 µM)
# In short: as §1
# [3] = compound: Nc1ncn([C@H]2C[C@H](O)[C@@H](CO)O2)c(=O)n1 [Decitabine] + Cc1cc(Nc2cc(N3CCN(C)CC3)nc(Sc3ccc(NC(=O)C4CC4)cc3)n2)n[nH]1 [Tozasertib] (partner 0.1 µM)
# In short: as §1
# [4] = compound: O=C(C[C@H]1NCCC[C@@H]1O)Cn1cnc2cc(Br)c(Cl)cc2c1=O (racemic) [Halofuginone] + CC(C)C[C@H](NC(=O)[C@H](Cc1ccccc1)NC(=O)c1cnccn1)B(O)O [Bortezomib] (partner 0.002 µM)
# In short: as §1
cell line,measurement,setting,value
UMC-11,relative viability,[1]; first compound 0.04 µM,1.14
same,relative viability,[1]; first compound 0.4 µM,1.04
same,relative viability,[1]; first compound 4 µM,0.903
same,relative viability,[2]; first compound 0.04 µM,0.877
same,relative viability,[2]; first compound 0.1265 µM,0.832
same,relative viability,[2]; first compound 0.4 µM,0.434
same,relative viability,[2]; first compound 1.265 µM,0.357
same,relative viability,[2]; first compound 4 µM,0.346
same,relative viability,[3]; first compound 0.04 µM,0.202
same,relative viability,[3]; first compound 0.1265 µM,0.186
same,relative viability,[3]; first compound 0.4 µM,0.186
same,relative viability,[3]; first compound 1.265 µM,0.192
same,relative viability,[3]; first compound 4 µM,0.183
same,relative viability,[4]; first compound 0.001 µM,0.683
same,relative viability,[4]; first compound 0.003162 µM,0.775
same,relative viability,[4]; first compound 0.01 µM,0.684
same,relative viability,[4]; first compound 0.03162 µM,0.689
same,relative viability,[4]; first compound 0.1 µM,0.645
